Measurements taken from US5539123A, “Low molecular weight thiocarbamates as inhibitors of elastase, uses and method of synthesis” (University of Kentucky Research Foundation, priority 1994, dated 1996).

Test system: Zymosan Induced Inflammation
Test: Zymosan-induced paw inflammation (arthritis) in rats, percent volume increase of the paw
Type: in vivo, rat
Conditions: for % Oedema Volume change: 3.6 × 10^-4 mg/g IP vs control; for % Volume Increase, Mean of 3 experiments / % Volume Increase: 3.6 × 10^-4 mg/g IP
Description: A reversible arthritic condition was induced according to known procedures for the Zymosan-induced arthritis (See J. P. Tarayre, A. Delphon, et al., Pharmacological studies in zymosan inflammation in rats and mice, I: Zymosan-induced paw edema in rat and mice, Pharmacological Research, 21, (#4) 375-384 (1989); Takuo Sato, Yoshitaka Ino, et al., Inhibitory effects of a novel synthetic protease inhibitor (FUT-175), on the paw edema in rats and Zymosan-induced compliment activation in vitro, Japan J. Pharmacol., 42,587-589 (1986); David K. Gremmell, et al., Comparative effects of drugs on four paw edema models on the rat, Agents and Actions 4, (#1) 107-116 (1979); and D. C. Keystone, et al., Zymosan-induced arthritis: A model of chronic proliferative arthritis following activation of the alternative pathway of compliment, Arthritis and Rheumatism 20 (#7) 1396-1401 (1977)).
Each rat (250 g each) was kept in a restraining cage with light ether anesthesia until the administration of the drug. The procedure involves the intramuscular (IM) injection of 1 mg of Zymosan in 50 μL (microliters) of normal saline in the pad of a hind paw of the rat. Swelling becomes evident within 20 minutes and reaches a maximum within 1.5 hours. The swelling disappears after 24 hours. In the Figures the reversal to normal size of the paw within 24 hours is not shown. The degree of swelling is measured by a water displacement method and the percent (%) of volume increase of the paw is plotted against time (see J. P. Tarayre, A. Delphon, et al., Pharmacological studies in zymosan inflammation in rats and mice. I: Zymosan-induced paw edema in rat and mice, Pharmaco-logical Research, 21, (#4) 375-384 (1989); Takuo Sato, Yoshitaka Ino, et al., Inhibitory effects of a novel synthetic protease inhibitor (FUT-175), on the paw edema in rats and Zymosan-induced compliment activation in vitro, Japan J. Pharmacol., 42, 587-589 (1986)).
Control was conducted by injecting I.P. 100 μl of propylene glycol (the vehicle) 15 min. prior to Zymosan administration. […] Data from tables 1 and 1a are plotted in FIGS. 1 and 1a respectively.
In the experimental procedure the drug [PC-16, […] (FIG. 2) or 90 μg/rat (FIG. 3)] is dissolved in 100 μL of propylene glycol and is injected IP to the rats. Fifteen minutes later the Zymosan (1mg/50 μL of normal saline) solution is injected IM into the paw of the rats. The degree of swelling is subsequently measured at various time intervals for a period of 24 hours and is reported up to 4 hours.

Compound: CCCCNC(=O)Sc1nnnn1-c1ccccc1 [PC-16]
- percent volume increase of rat paw (36 μg/kg IP 15 min prior to Zymosan, 1.5 hour, control 60%): 20%
- swelling of rat paw (360 μg/kg IP 15 min prior to Zymosan): practically no swelling
- % Oedema Volume change (10 min): -85.0%
- % Oedema Volume change (20 min): -94.4%
- % Oedema Volume change (30 min): -94.2%
- % Oedema Volume change (40 min): -94.7%
- % Oedema Volume change (50 min): -95.1%
- % Oedema Volume change (60 min): -94.9%
- % Oedema Volume change (65 min): -94.8%
- % Oedema Volume change (70 min): -94.6%
- % Oedema Volume change (80 min): -93.8%
- % Oedema Volume change (95 min): -94.0%
- % Oedema Volume change (100 min): -94.3%
- % Oedema Volume change (105 min): -94.1%
- % Oedema Volume change (115 min): -93.7%
- % Oedema Volume change (120 min): -93.3%
- % Oedema Volume change (130 min): -94.1%
- % Oedema Volume change (135 min): -93.2%
- % Oedema Volume change (145 min): -92.6%
- % Oedema Volume change (150 min): -91.9%
- % Oedema Volume change (160 min): -91.6%
- % Oedema Volume change (175 min): -91.5%
- % Oedema Volume change (190 min): -91.9%
- % Oedema Volume change (200 min): -91.7%
- % Oedema Volume change (205 min): -91.3%
- % Oedema Volume change (210 min): -90.7%
- % Oedema Volume change (220 min): -90.6%
- % Oedema Volume change (225 min): -89.8%
- % Oedema Volume change (240 min): -90.9%
- % Volume Increase, Mean of 3 experiments (0 min): 0.00%
- % Volume Increase, Mean of 3 experiments (5 min): 0.89%
- % Volume Increase, Mean of 3 experiments (10 min): 1.43%
- % Volume Increase, Mean of 3 experiments (15 min): 1.43%
- % Volume Increase, Mean of 3 experiments (20 min): 1.61%
- % Volume Increase, Mean of 3 experiments (30 min): 2.19%
- % Volume Increase, Mean of 3 experiments (40 min): 2.37%
- % Volume Increase, Mean of 3 experiments (45 min): 2.00%
- % Volume Increase, Mean of 3 experiments (50 min): 2.37%
- % Volume Increase, Mean of 3 experiments (55 min): 2.92%
- % Volume Increase, Mean of 3 experiments (60 min): 2.92%
- % Volume Increase (65 min): 2.92%
- % Volume Increase (70 min): 3.13%
- % Volume Increase, Mean of 3 experiments (75 min): 3.34%
- % Volume Increase, Mean of 3 experiments (80 min): 3.52%
- % Volume Increase, Mean of 3 experiments (85 min): 3.52%
- % Volume Increase, Mean of 3 experiments (90 min): 3.52%
- % Volume Increase (95 min): 3.52%
- % Volume Increase, Mean of 3 experiments (100 min): 3.33%
- % Volume Increase (105 min): 3.49%
- % Volume Increase, Mean of 3 experiments (110 min): 3.65%
- % Volume Increase (115 min): 3.78%
- % Volume Increase, Mean of 3 experiments (120 min): 3.90%
- % Volume Increase, Mean of 3 experiments (125 min): 3.71%
- % Volume Increase, Mean of 3 experiments (130 min): 3.35%
- % Volume Increase (135 min): 3.53%
- % Volume Increase, Mean of 3 experiments (145 min): 3.71%
- % Volume Increase, Mean of 3 experiments (150 min): 3.90%
- % Volume Increase, Mean of 3 experiments (160 min): 3.90%
- % Volume Increase, Mean of 3 experiments (170 min): 3.52%
- % Volume Increase (175 min): 3.70%
- % Volume Increase, Mean of 3 experiments (180 min): 3.88%
- % Volume Increase, Mean of 3 experiments (190 min): 3.34%
- % Volume Increase (200 min): 3.41%
